Source: paper PMC13430218 (Clinical Cancer Research, 2026)

Assay: Plasma pharmacokinetics of rogocekib, LC-MS/MS, noncompartmental
Assay type: in vivo, human
Description: For other patients in the expansion cohort, peripheral blood samples were collected before and after the dose at 2 and 6 hours on day 1 of cycle 1, and before dose of day 1 in cycles 2 and 4.
Descriptive statistics such as medians, standard deviations, and ranges were calculated. The Kaplan–Meier method was utilized for OS and PFS analysis. PK/PD parameters were assessed using a noncompartmental approach. Exploratory biomarkers were assessed through descriptive statistics.

Tmax, median (min, max) (Cohort A 10 mg twice weekly, n = 1, cycle 1 day 1, oral): 2 (2, 2) hours | AUC0–24 hours, geometric mean (%CV) (Cohort A 140 mg twice weekly, n = 6, cycle 1 day 1, oral): 5,823.618 (22.2) hours·ng/mL
SMILES: COc1ncnn2ccc(-c3cnc4nc(C)n(Cc5nnc([C@@H](C)F)o5)c4c3)c12 [rogocekib, Rogocekib]
